In PMC5218480 (PLoS ONE, 2017):

System: MV-4-11 cells
Experiment: Gene expression microarray analysis (Affymetrix PrimeView) and GSEA
Assay type: cell-based, human
Design: RFU PODN (11730768_x_at) / Fold change /veh PODN (11730768_x_at) / RFU LINC00158 (11744669_a_at) / Fold change /veh LINC00158 (11744669_a_at) / RFU DUSP10 (11751237_a_at) / Fold change /veh DUSP10 (11751237_a_at) / RFU ID3 (11757404_x_at) / Fold change /veh ID3 (11757404_x_at) / RFU PLEKHG5 (11737974_s_at) / Fold change /veh PLEKHG5 (11737974_s_at) / RFU LRRC4B (11730491_at) / Fold change /veh LRRC4B (11730491_at) / RFU GIMAP4 (11747438_a_at) / Fold change /veh GIMAP4 (11747438_a_at) / RFU KRT8 (11758183_x_at) / Fold change /veh KRT8 (11758183_x_at) / RFU CNN1 (11734310_a_at) / Fold change /veh CNN1 (11734310_a_at) / RFU VPS37D (11726825_at) / Fold change /veh VPS37D (11726825_at) / RFU C10orf10 (11716522_x_at) / Fold change /veh C10orf10 (11716522_x_at) / RFU KIR2DL2 /// KIR2DL4 /// KIR2DL5A /// KIR2DL5B /// KIR2DS1 /// KIR2DS2 /// KIR2DS3 /// KIR2DS4 /// KIR3DL3 /// KIR3DL3 /// KIR3DS1 (11738374_at) / Fold change /veh KIR2DL2 /// KIR2DL4 /// KIR2DL5A /// KIR2DL5B /// KIR2DS1 /// KIR2DS2 /// KIR2DS3 /// KIR2DS4 /// KIR3DL3 /// KIR3DL3 /// KIR3DS1 (11738374_at) / RFU C1QL1 (11718748_at) / Fold change /veh C1QL1 (11718748_at) / RFU TMPRSS4 (11747572_a_at) / Fold change /veh TMPRSS4 (11747572_a_at) / RFU HAMP (11756126_x_at) / Fold change /veh HAMP (11756126_x_at) / RFU RNFT2 (11725882_a_at) / Fold change /veh RNFT2 (11725882_a_at) / RFU NR4A2 (11747474_a_at) / Fold change /veh NR4A2 (11747474_a_at) / RFU ABCC12 (11746883_a_at) / Fold change /veh ABCC12 (11746883_a_at) / RFU TMEM136 (11760407_x_at) / Fold change /veh TMEM136 (11760407_x_at) / RFU CLDN22 /// WWC2 (11732394_at) / Fold change /veh CLDN22 /// WWC2 (11732394_at) / RFU HLA-DPB1 (11760878_x_at) / Fold change /veh HLA-DPB1 (11760878_x_at) / RFU SPINT1 (11716480_a_at) / Fold change /veh SPINT1 (11716480_a_at) / RFU GAP43 (11754022_s_at) / Fold change /veh GAP43 (11754022_s_at) / RFU A4GNT (11735810_at) / Fold change /veh A4GNT (11735810_at) / RFU PRB3 (11715151_x_at) / Fold change /veh PRB3 (11715151_x_at) / RFU TUBB4B (11761932_at) / Fold change /veh TUBB4B (11761932_at) / RFU CAPN14 (11732068_a_at) / Fold change /veh CAPN14 (11732068_a_at) / RFU TMCC2 (11721928_a_at) / Fold change /veh TMCC2 (11721928_a_at) / RFU IRGQ (11745062_a_at) / Fold change /veh IRGQ (11745062_a_at) / RFU FAM174B (11720279_a_at) / Fold change /veh FAM174B (11720279_a_at) / RFU TMPRSS4 (11748680_a_at) / Fold change /veh TMPRSS4 (11748680_a_at) / RFU FAM212B (11763350_a_at) / Fold change /veh FAM212B (11763350_a_at) / RFU PLEKHG5 (11743358_a_at) / Fold change /veh PLEKHG5 (11743358_a_at) / RFU ZSCAN30 (11745921_a_at) / Fold change /veh ZSCAN30 (11745921_a_at) / RFU CMKLR1 (11741424_a_at) / Fold change /veh CMKLR1 (11741424_a_at) / RFU LOC101060620 /// MAPK8IP1 (11723275_at) / Fold change /veh LOC101060620 /// MAPK8IP1 (11723275_at) / RFU SPTSSB (11747773_x_at) / Fold change /veh SPTSSB (11747773_x_at) / RFU PRSS12 (11739890_at) / Fold change /veh PRSS12 (11739890_at) / RFU BIN1 (11741810_x_at) / Fold change /veh BIN1 (11741810_x_at) / RFU WNT11 (11732464_a_at) / Fold change /veh WNT11 (11732464_a_at) / RFU C10orf10 (11716521_a_at) / Fold change /veh C10orf10 (11716521_a_at) / RFU C5orf56 (11738089_at) / Fold change /veh C5orf56 (11738089_at) / RFU CYB561 (11721691_x_at) / Fold change /veh CYB561 (11721691_x_at) / RFU ANKRD19P (11752326_a_at) / Fold change /veh ANKRD19P (11752326_a_at) / RFU OR2T12 /// OR2T33 /// OR2T8 (11738714_s_at) / Fold change /veh OR2T12 /// OR2T33 /// OR2T8 (11738714_s_at) / RFU VCAN (11748164_a_at) / Fold change /veh VCAN (11748164_a_at) / RFU JSRP1 (11732532_at) / Fold change /veh JSRP1 (11732532_at) / RFU KRTAP10-11 (11738290_x_at) / Fold change /veh KRTAP10-11 (11738290_x_at) / RFU MYO3A (11730013_a_at) / Fold change /veh MYO3A (11730013_a_at) / RFU EBF3 (11725865_a_at) / Fold change /veh EBF3 (11725865_a_at) / RFU CAMK2N1 (11719241_x_at) / Fold change /veh CAMK2N1 (11719241_x_at) / RFU C5orf56 (11738088_a_at) / Fold change /veh C5orf56 (11738088_a_at) / RFU OLFML3 (11715873_a_at) / Fold change /veh OLFML3 (11715873_a_at) / RFU LOC100653217 /// NTM (11731650_a_at) / Fold change /veh LOC100653217 /// NTM (11731650_a_at) / RFU MAPK11 (11762145_a_at) / Fold change /veh MAPK11 (11762145_a_at) / RFU FIZ1 (11724087_x_at) / Fold change /veh FIZ1 (11724087_x_at) / RFU OASL (11726364_x_at) / Fold change /veh OASL (11726364_x_at) / RFU SOX15 (11748057_x_at) / Fold change /veh SOX15 (11748057_x_at) / RFU CD79A (11719716_a_at) / Fold change /veh CD79A (11719716_a_at) / RFU HIST1H1D (11736915_at) / Fold change /veh HIST1H1D (11736915_at) / RFU CASKIN2 (11723855_a_at) / Fold change /veh CASKIN2 (11723855_a_at) / RFU LOC730098 (11760151_x_at) / Fold change /veh LOC730098 (11760151_x_at) / RFU OR4N2 (11742367_at) / Fold change /veh OR4N2 (11742367_at) / RFU PRRT2 (11749266_a_at) / Fold change /veh PRRT2 (11749266_a_at) / RFU SNX32 (11753110_a_at) / Fold change /veh SNX32 (11753110_a_at) / RFU CDHR5 (11726645_a_at) / Fold change /veh CDHR5 (11726645_a_at) / RFU RCAN1 (11760418_a_at) / Fold change /veh RCAN1 (11760418_a_at) / RFU FAM167A (11723789_a_at) / Fold change /veh FAM167A (11723789_a_at) / RFU FAM26E (11764081_at) / Fold change /veh FAM26E (11764081_at) / RFU ISYNA1 (11749810_s_at) / Fold change /veh ISYNA1 (11749810_s_at) / RFU ACY1 (11761880_at) / Fold change /veh ACY1 (11761880_at) / RFU 11764098_at / Fold change /veh 11764098_at / RFU SAMD14 (11745864_x_at) / Fold change /veh SAMD14 (11745864_x_at) / RFU NPB (11741838_a_at) / Fold change /veh NPB (11741838_a_at) / RFU TMPRSS6 (11731388_a_at) / Fold change /veh TMPRSS6 (11731388_a_at) / RFU KRTAP10-2 (11738614_at) / Fold change /veh KRTAP10-2 (11738614_at) / RFU ARHGAP8 /// PRR5-ARHGAP8 (11727945_x_at) / Fold change /veh ARHGAP8 /// PRR5-ARHGAP8 (11727945_x_at) / RFU KRTAP5-7 /// NADSYN1 (11734609_at) / Fold change /veh KRTAP5-7 /// NADSYN1 (11734609_at) / RFU RASL12 (11751679_a_at) / Fold change /veh RASL12 (11751679_a_at) / RFU CDKN2B (11736163_a_at) / Fold change /veh CDKN2B (11736163_a_at) / RFU PRF1 (11729649_at) / Fold change /veh PRF1 (11729649_at) / RFU, ZNF638 /// ZNF638-IT1 / Fold change vs veh, ZNF638 /// ZNF638-IT1 / RFU, PANK3 / Fold change vs veh, PANK3 / RFU, SH3YL1 / Fold change vs veh, SH3YL1 / RFU, ZEB2 / Fold change vs veh, ZEB2 / RFU, NRIP1 / Fold change vs veh, NRIP1 / RFU, PTTG1IP / Fold change vs veh, PTTG1IP / RFU, CAPN2 / Fold change vs veh, CAPN2 / RFU, MED14 / Fold change vs veh, MED14 / RFU, SNORA58 / Fold change vs veh, SNORA58 / RFU, C1orf63 / Fold change vs veh, C1orf63 / RFU, LRRFIP1 / Fold change vs veh, LRRFIP1 / RFU, NDUFAF7 / Fold change vs veh, NDUFAF7 / RFU, SLC12A2 / Fold change vs veh, SLC12A2 / RFU, IBTK / Fold change vs veh, IBTK / RFU, ESF1 / Fold change vs veh, ESF1 / Fold change vs veh, TMEM50B / RFU, TAOK1 / Fold change vs veh, TAOK1 / RFU, ACBD3 / Fold change vs veh, ACBD3 / RFU, TMA16 / Fold change vs veh, TMA16 / RFU, RWDD3 / Fold change vs veh, RWDD3 / RFU, BCAT1 / Fold change vs veh, BCAT1 / RFU, EDEM3 / Fold change vs veh, EDEM3 / RFU, TMEM33 / Fold change vs veh, TMEM33 / RFU, WDR75 / Fold change vs veh, WDR75 / RFU, AHCTF1 / Fold change vs veh, AHCTF1 / RFU, TFRC / Fold change vs veh, TFRC / RFU, ZDHHC17 / Fold change vs veh, ZDHHC17 / RFU, NOM1 / Fold change vs veh, NOM1 / RFU, ARL8B / Fold change vs veh, ARL8B / RFU, ZBTB11 / Fold change vs veh, ZBTB11 / RFU, TAMM41 / Fold change vs veh, TAMM41 / RFU, KIAA1704 /// LOC100996395 / Fold change vs veh, KIAA1704 /// LOC100996395 / RFU, ING1 / Fold change vs veh, ING1 / RFU, TRMT61B / Fold change vs veh, TRMT61B / RFU, FUBP3 / Fold change vs veh, FUBP3 / RFU, TP53 / Fold change vs veh, TP53 / RFU, TNKS2 / Fold change vs veh, TNKS2 / RFU, ZFP14 / Fold change vs veh, ZFP14 / RFU, ACTR2 / Fold change vs veh, ACTR2 / RFU, PPP3R1 / Fold change vs veh, PPP3R1 / RFU, PIK3R1 / Fold change vs veh, PIK3R1 / RFU, HNRNPA1 / Fold change vs veh, HNRNPA1 / RFU, RNF170 / Fold change vs veh, RNF170 / RFU, ZNF28 / Fold change vs veh, ZNF28 / RFU, RNGTT / Fold change vs veh, RNGTT / RFU, OGT / Fold change vs veh, OGT / RFU, BRD1 / Fold change vs veh, BRD1 / RFU, MARS / Fold change vs veh, MARS / RFU, ZNF655 / Fold change vs veh, ZNF655 / RFU, FAHD1 / Fold change vs veh, FAHD1 / RFU, BDP1 / Fold change vs veh, BDP1 / RFU, LRRCC1 / Fold change vs veh, LRRCC1 / RFU, ARID1A / Fold change vs veh, ARID1A / RFU, ZNF146 / Fold change vs veh, ZNF146 / RFU, ZNF330 / Fold change vs veh, ZNF330 / RFU, GPN3 / Fold change vs veh, GPN3 / RFU, C9orf123 / Fold change vs veh, C9orf123 / RFU, N4BP2L2 / Fold change vs veh, N4BP2L2 / RFU, ARFIP1 / Fold change vs veh, ARFIP1 / RFU, FAM179B / Fold change vs veh, FAM179B / RFU, BCL10 / Fold change vs veh, BCL10 / RFU, UHRF1BP1L / Fold change vs veh, UHRF1BP1L / RFU, BET1 / Fold change vs veh, BET1 / RFU, CNOT2 / Fold change vs veh, CNOT2 / RFU, ZNF268 / Fold change vs veh, ZNF268 / Fold change vs veh, ZNF507 / RFU, DGCR2 / Fold change vs veh, DGCR2 / RFU, WDSUB1 / Fold change vs veh, WDSUB1 / Fold change vs veh, HSP90B1 /// MIR3652 / RFU, ADSS / Fold change vs veh, ADSS / RFU, GK / Fold change vs veh, GK / RFU, ZNF148 / Fold change vs veh, ZNF148 / RFU, TAF9 / Fold change vs veh, TAF9 / RFU, SLC1A5 / Fold change vs veh, SLC1A5 / RFU, SLMO2 / Fold change vs veh, SLMO2 / RFU, ABCC4 / Fold change vs veh, ABCC4 / RFU, LOC101060439 /// RAP1B / Fold change vs veh, LOC101060439 /// RAP1B / RFU, RFX7 / Fold change vs veh, RFX7 / RFU, GTPBP10 / Fold change vs veh, GTPBP10 / RFU, CNEP1R1 / Fold change vs veh, CNEP1R1 / RFU, BIVM-ERCC5 /// ERCC5 / Fold change vs veh, BIVM-ERCC5 /// ERCC5 / RFU, ILF3 / Fold change vs veh, ILF3 / RFU 11762660_at / Fold change /veh 11762660_at / RFU VCAN (11757783_s_at) / Fold change /veh VCAN (11757783_s_at) / RFU DDX43 (11728927_at) / Fold change /veh DDX43 (11728927_at) / RFU KRT8 (11758188_x_at) / Fold change /veh KRT8 (11758188_x_at) / RFU NKD1 (11759106_at) / Fold change /veh NKD1 (11759106_at) / RFU SRD5A1 (11742802_a_at) / Fold change /veh SRD5A1 (11742802_a_at) / RFU TPSAB1 /// TPSB2 (11721975_s_at) / Fold change /veh TPSAB1 /// TPSB2 (11721975_s_at) / RFU GSTM3 (11746129_a_at) / Fold change /veh GSTM3 (11746129_a_at) / RFU IL23R (11737362_x_at) / Fold change /veh IL23R (11737362_x_at) / RFU TMEM51 (11727254_a_at) / Fold change /veh TMEM51 (11727254_a_at) / RFU PIWIL2 (11732686_x_at) / Fold change /veh PIWIL2 (11732686_x_at) / RFU ORM1 (11744905_x_at) / Fold change /veh ORM1 (11744905_x_at) / RFU CCDC152 (11743942_at) / Fold change /veh CCDC152 (11743942_at) / RFU ECM1 (11717891_a_at) / Fold change /veh ECM1 (11717891_a_at) / RFU IL23R (11748794_a_at) / Fold change /veh IL23R (11748794_a_at) / RFU TNFAIP8L3 (11732012_x_at) / Fold change /veh TNFAIP8L3 (11732012_x_at) / RFU MBOAT4 (11741988_at) / Fold change /veh MBOAT4 (11741988_at) / RFU 11764193_at / Fold change /veh 11764193_at / RFU TMEM53 (11763286_at) / Fold change /veh TMEM53 (11763286_at) / RFU MAGEB2 (11727129_at) / Fold change /veh MAGEB2 (11727129_at) / RFU TMEM200A (11744735_a_at) / Fold change /veh TMEM200A (11744735_a_at) / RFU CCDC152 (11751479_a_at) / Fold change /veh CCDC152 (11751479_a_at) / RFU FAM211A (11726209_a_at) / Fold change /veh FAM211A (11726209_a_at) / RFU RGS16 (11746705_a_at) / Fold change /veh RGS16 (11746705_a_at) / RFU VCAN (11755009_s_at) / Fold change /veh VCAN (11755009_s_at) / RFU RHOB (11743442_s_at) / Fold change /veh RHOB (11743442_s_at) / RFU RGS16 (11720943_a_at) / Fold change /veh RGS16 (11720943_a_at) / RFU RGS16 (11720944_at) / Fold change /veh RGS16 (11720944_at) / RFU, VPS4B / Fold change vs veh, VPS4B / RFU, CREB1 / Fold change vs veh, CREB1 / RFU, DNAJC13 / Fold change vs veh, DNAJC13 / RFU, GNAQ / Fold change vs veh, GNAQ / RFU, CDK5R1 / Fold change vs veh, CDK5R1 / RFU, ZRANB3 / Fold change vs veh, ZRANB3 / RFU, CUL4A / Fold change vs veh, CUL4A / RFU, CCNY / Fold change vs veh, CCNY / RFU, UFL1 / Fold change vs veh, UFL1 / RFU, COG3 / Fold change vs veh, COG3 / RFU, DIAPH2 / Fold change vs veh, DIAPH2 / RFU, SKA2 / Fold change vs veh, SKA2 / RFU, AFF3 / Fold change vs veh, AFF3 / RFU, LMF1 / Fold change vs veh, LMF1 / RFU, IPO11 / Fold change vs veh, IPO11 / RFU, DFFB / Fold change vs veh, DFFB / RFU, FOXP1 / Fold change vs veh, FOXP1 / RFU, CARD8 / Fold change vs veh, CARD8 / RFU, STRN3 / Fold change vs veh, STRN3 / RFU, ADK / Fold change vs veh, ADK / RFU, RASSF2 / Fold change vs veh, RASSF2 / RFU, WIPF1 / Fold change vs veh, WIPF1 / RFU, LARP1B / Fold change vs veh, LARP1B / RFU, RASA1 / Fold change vs veh, RASA1 / RFU, RB1 / Fold change vs veh, RB1 / RFU, PPFIA1 / Fold change vs veh, PPFIA1 / RFU, MAT2A / Fold change vs veh, MAT2A / RFU, CCT5 / Fold change vs veh, CCT5 / RFU, WDR92 / Fold change vs veh, WDR92 / RFU, CUX1 / Fold change vs veh, CUX1 / RFU, TTC7A / Fold change vs veh, TTC7A / RFU, TMEM135 / Fold change vs veh, TMEM135 / RFU, DEPTOR / Fold change vs veh, DEPTOR / RFU, CPM / Fold change vs veh, CPM / RFU, DNAJB6 / Fold change vs veh, DNAJB6 / RFU, CACNA2D3 / Fold change vs veh, CACNA2D3 / RFU, DTX4 / Fold change vs veh, DTX4 / RFU, TFCP2 / Fold change vs veh, TFCP2 / RFU, GMCL1 /// GMCL1P1 / Fold change vs veh, GMCL1 /// GMCL1P1 / RFU, AEBP2 / Fold change vs veh, AEBP2 / RFU, SNHG1 /// SNORD22 /// SNORD25 /// SNORD26 /// SNORD27 /// SNORD28 /// SNORD29 /// SNORD31 / Fold change vs veh, SNHG1 /// SNORD22 /// SNORD25 /// SNORD26 /// SNORD27 /// SNORD28 /// SNORD29 /// SNORD31 / Fold change (Aza/veh), C12orf56 (ProbeSet 11735607_a_at) / Fold change (ACY-1035/veh), C12orf56 (ProbeSet 11735607_a_at) / Fold change (Aza/veh), FGFR1OP (ProbeSet 11751329_s_at) / Fold change (ACY-1035/veh), FGFR1OP (ProbeSet 11751329_s_at) / Fold change (Aza/veh), VPS36 (ProbeSet 11739960_a_at) / Fold change (ACY-1035/veh), VPS36 (ProbeSet 11739960_a_at) / RFU SYPL1 (11715823_x_at) / Fold change /veh SYPL1 (11715823_x_at) / RFU IGFBP7 (11715501_s_at) / Fold change /veh IGFBP7 (11715501_s_at) / RFU REEP3 (11722064_at) / Fold change /veh REEP3 (11722064_at) / RFU IGLL1 (11728026_x_at) / Fold change /veh IGLL1 (11728026_x_at): dose or concentration left out as unconfirmed
Conditions: MV-4-11 cells, 48 hours

Structure (SMILES): Nc1ncn([C@@H]2O[C@H](CO)[C@@H](O)[C@H]2O)c(=O)n1 [azacitidine]
- Fold change /veh NPB (11741838_a_at): 0.96
